The results in this text go back to patent US4748240A, “Psychotropic bicyclic imides” (American Home Products Corporation, priority 1987, dated 1988).

The test system of experiment [1] is apomorphine-induced stereotyped behavior and climbing. The experiment can be described thus: Antagonism of apomorphine-induced stereotyped behavior and climbing. Type of experiment: in vivo, mouse (CF-1, Charles River). The conditions noted are these: for ED50: Mus musculus, po; for ED50 / Apomorphine Antagonism, Stereotypy ED50: apomorphine 1 mg/kg s.c.; for Apomorphine Antagonism, Stereotypy ED50: p.o.; for Ratio of ED50 for stereotyped behavior to ED50 for climbing: standard antipsychotic drugs, high ratio = low extrapyramidal liability. On the procedure: Readings are repeated every five minutes during a thirty minute test session. […] The ratio of the ED50 for stereotyped behavior of the ED50 for climbing is calculated.

Experiment [2] concerns conditioned avoidance responding. The experiment can be described thus: Conditioned avoidance, shelf-jump response. As to conditions: Rattus norvegicus, ip; single dose 40 mg/kg. Type of experiment: in vivo, rat (male CD, Charles River). An excerpt:
(§1) The antipsychotic properties of the compounds of this invention were established by standard pharmacologically accepted procedures involving conditioned avoidance studies in which trained male CD rats (Charles River), 400-450 g. body weight are exposed to a fifteen second warning tone (conditioned stimulus) continued for an additional fifteen seconds accompanied by electric shock. The rat can avoid the electric shock by jumping to an exposed shelf (shelf-jump response). A response during the initial warning tone is considered an avoidance response, while a response during shock delivery is considered as escape response. The shelf-jump response test procedure follows that of Herman et al., Comm. in Psychopharm., 3, pp. 165-171 (1979). The compounds of this invention were tested at a single dose (40 mg./kg. i.p.) in this procedure and were rated relative to their inhibition of conditioned avoidance responding. A similar test procedure (Discrete Trial) in which a lever press was substituted for a shelf-jump was used to establish the oral (p.o.) activity of the test compounds. Orally active compounds were tested over a full dose range and the Avoidance Block activities reported as "AB50 's" (mg./kg.).

The target of experiment [3] is T1, D-2 dopamine receptor (Rattus norvegicus, UniProt P61169).
T1 construct: from tissue; host or cells: homogenized limbic brain tissue
The experiment can be described thus: [^3 H] Spiroperidol binding inhibition (D-2 dopamine receptor, homogenized limbic brain tissue). As to conditions: 1 μM. The text has this: The results of this testing with compounds representative of the invention whose production is exemplified, infra, are as follows: […]

Experiment [4] has as its target T2, 5-HT1A serotonin receptor (Rattus norvegicus, UniProt P19327).
T2 construct: from tissue
T2 sequence (P19327 1-422): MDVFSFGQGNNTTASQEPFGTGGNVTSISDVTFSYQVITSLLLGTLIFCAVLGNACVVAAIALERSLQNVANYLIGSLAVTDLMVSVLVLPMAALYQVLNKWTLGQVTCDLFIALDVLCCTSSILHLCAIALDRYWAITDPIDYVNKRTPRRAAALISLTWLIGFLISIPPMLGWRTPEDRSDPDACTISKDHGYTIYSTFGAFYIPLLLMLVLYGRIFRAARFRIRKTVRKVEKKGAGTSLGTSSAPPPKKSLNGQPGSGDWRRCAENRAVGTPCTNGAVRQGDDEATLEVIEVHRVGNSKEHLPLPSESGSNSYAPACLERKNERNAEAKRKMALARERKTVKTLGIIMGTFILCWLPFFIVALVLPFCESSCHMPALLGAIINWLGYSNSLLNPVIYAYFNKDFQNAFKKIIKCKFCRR
The experiment can be described thus: Inhibition of [^3 H] 8-OH DPAT binding.
Source text: 8-OH DPAT (dipropylaminotetralin) from the 5-HT1A serotonin receptor by the procedure of Hall et al., J. Neurochem.

Experiment [5] concerns conditioned avoidance responding. As to the kind of experiment: Conditioned avoidance, Discrete Trial (lever press). It is filed as in vivo, rat (male CD, Charles River). The conditions noted are these: for Conditioned Avoidance, Discrete Trial AB50: p.o.; for ED50: Rattus norvegicus, po, read-out: Conditioned Avoidance, Discrete Trial AB50.
Source text: as §1

[6] abbreviates: read-out: Apomorphine Antagonism, Climbing ED50.

Each structure is given as a SMILES string. Where two headings read alike, the source gives them in different places.

T1 sequence (P61169 whole entry): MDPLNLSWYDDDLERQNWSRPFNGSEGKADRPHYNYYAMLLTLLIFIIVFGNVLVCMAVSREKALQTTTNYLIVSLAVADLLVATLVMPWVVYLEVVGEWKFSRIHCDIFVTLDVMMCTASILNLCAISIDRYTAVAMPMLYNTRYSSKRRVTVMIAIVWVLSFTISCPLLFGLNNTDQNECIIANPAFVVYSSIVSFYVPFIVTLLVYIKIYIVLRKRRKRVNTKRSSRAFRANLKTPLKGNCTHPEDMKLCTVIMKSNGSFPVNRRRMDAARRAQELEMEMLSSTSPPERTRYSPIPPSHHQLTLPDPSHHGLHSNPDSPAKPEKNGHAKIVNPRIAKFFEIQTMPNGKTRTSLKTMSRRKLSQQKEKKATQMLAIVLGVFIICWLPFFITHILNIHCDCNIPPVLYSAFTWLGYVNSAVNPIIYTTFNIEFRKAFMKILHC

In the case of `CC1(C)C2CCC1C(=O)N(CCCCN1CCN(c3ncccn3)CC1)C2=O` [Example 20, 3-[4-[4-(2-Pyrimidinyl)-1-piperazinyl]butyl]-8,8-dimethyl-3-azabicyclo[3.2.1]octane-2,4-dione], in experiment [1] (setting [6]), the ED50 was 0.2 mg/kg. For the same molecule, the “Apomorphine Antagonism, Stereotypy ED50” value in experiment [1] is “inactive”. In experiment [2], this molecule returned an inhibition in vivo at 40 mg/kg above 20%. In addition, testing at 1 µM in experiment [3] gave an inhibition of 53%. The affinity in experiment [4], expressed as Ki, was 16 nM. In addition, the “Conditioned Avoidance, Discrete Trial AB50” value (“Conditioned Avoidance” below) in experiment [5] is “inactive”.
As for `O=C1C2CCC(O2)C(=O)N1CCCCN1CCN(c2ncccn2)CC1` [Example 3, 3-[4-[4-(2-Pyrimidinyl)-1-piperazinyl]butyl]-8-oxa-3-azabicyclo[3.2.1]octane-2,4-dione], in experiment [1], the “Apomorphine Antagonism, Stereotypy ED50” value is “inactive”. Moreover, the inhibition in vivo at 40 mg/kg in experiment [2] was around 80%. For the same molecule, the inhibition at 1 µM in experiment [3] is 44%. Moreover, in experiment [4], the Ki stood at 31 nM. Also, the “Conditioned Avoidance” value in experiment [5] is “weak”.
As for `O=C1C2CCC(C2)C(=O)N1CCCCN1CCN(c2cncc(Cl)n2)CC1` [Example 8, 3-[4-[4-(6-Chloro-2-pyrazinyl)-1-piperazinyl]butyl]-3-azabicyclo[3.2.1]octane-2,4-dione], the ED50 in experiment [1] (setting [6]) was 15.7 mg/kg; in experiment [5], 33.6 mg/kg. For the same molecule, the “Apomorphine Antagonism, Stereotypy ED50” value in experiment [1] was “inactive”. The molecule further came in with an inhibition in vivo at 40 mg/kg in experiment [2] of around 80%. For the same molecule, the inhibition at 1 µM in experiment [3] amounted to 12%; in experiment [4], 68%.
As for `O=C1C2CCC(O2)C(=O)N1CCCCN1CCN(c2cncc(Cl)n2)CC1` [Example 12, 3-[4-[4-(6-Chloro-2-pyrazinyl)-1-piperazinyl]butyl]-8-oxa-3-azabicyclo[3.2.1]octane-2,4-dione], in experiment [1] (setting [6]), the ED50 was found to be 51.6 mg/kg. Moreover, the “Apomorphine Antagonism, Stereotypy ED50” value in experiment [1] is “inactive”. Moreover, the inhibition in vivo at 40 mg/kg in experiment [2] is above 20%. Also, the inhibition at 1 µM is 7% in experiment [3] and 54% in experiment [4]. Further, in experiment [5], the “Conditioned Avoidance” value was “weak”.
In the case of `O=C1C2CCC(C2)C(=O)N1CCCCN1CCN(c2ccc3ccccc3n2)CC1` [Example 9, 3-[4-[4-(2-Quinolyl)-1-piperazinyl]butyl]-3-azabicyclo[3.2.1]octane-2,4-dione], the ED50 in experiment [1] (setting [6]) came out at 40.9 mg/kg; in experiment [5], 98.2 mg/kg. For the same molecule, in experiment [1], the “Apomorphine Antagonism, Stereotypy ED50” value was “inactive”. The molecule further gave an inhibition in vivo at 40 mg/kg in experiment [2] above 20%. The inhibition at 1 µM in experiment [3] worked out at 31%. In addition, the Ki in experiment [4] was determined as 60 nM.
Turning to `O=C1C2CCCC(C2)C(=O)N1CCCCN1CCN(c2cnccn2)CC1` [Example 16, 3-[4-[4-(2-Pyrazinyl)-1-piperazinyl]butyl]-3-azabicyclo[3.3.1]nonane-2,4-dione], the ED50 in experiment [1] (setting [6]) worked out at 9.17 mg/kg; in experiment [1] (read-out: Apomorphine Antagonism, Stereotypy ED50), 54.1 mg/kg. Besides, the inhibition in vivo at 40 mg/kg in experiment [2] was around 80%. Besides, in experiment [3], the inhibition at 1 µM amounted to 12%. In addition, the affinity in experiment [4], expressed as Ki, was 129 nM. In experiment [5], the “Conditioned Avoidance” value is “inactive”.
Turning to `O=C1C2CCCC(O2)C(=O)N1CCCCN1CCN(c2ncccn2)CC1` [Example 13, 3-[4-[4-(2-Pyrimidinyl)-1-piperazinyl]butyl]-9-oxa-3-azabicyclo[3.3.1]nonane-2,4-dione], the ED50 was 0.24 mg/kg in experiment [1] (setting [6]) and 86.2 mg/kg in experiment [5]. In addition, the “Apomorphine Antagonism, Stereotypy ED50” value in experiment [1] was “inactive”. The molecule further yielded an inhibition in vivo at 40 mg/kg in experiment [2] of around 80%. For the same molecule, testing at 1 µM in experiment [3] gave an inhibition of 17%. Also, the Ki in experiment [4] was 122 nM.
Consider `O=C(CCCN1CCC(O)(c2ccc(Cl)cc2)CC1)c1ccc(F)cc1` [haloperidol, reference compound], for which the “Ratio of ED50 for stereotyped behavior to ED50 for climbing” value in experiment [1] turned out to be 1.00.
Take `CN(C)CCCN1c2ccccc2Sc2ccc(Cl)cc21` [chlorpromazine, reference compound]: the “Ratio of ED50 for stereotyped behavior to ED50 for climbing” value in experiment [1] turned out to be 1.51.
As for `O=C1CC2(CCCC2)CC(=O)N1CCCCN1CCN(c2ncccn2)CC1` [buspirone, reference compound], the “Affinity for the 5-HT1A serotonin receptor (in words)” value in experiment [4] is “potent affinity”.
